Relative viability data for ten cell lines are collected here from the supplement of paper PMC10307832.

Experiment in all cases: relative viability (nuclei count vs DMSO), 5 days (fraction); higher = more cells survive
Compound in experiment [1]: Cc1nc(Nc2ncc(C(=O)Nc3c(C)cccc3Cl)s2)cc(N2CCN(CCO)CC2)n1 [Dasatinib] + Nc1ncn([C@H]2C[C@H](O)[C@@H](CO)O2)c(=O)n1 [Decitabine] (partner 2 µM)
In short, it runs like this:
(§1)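 For relative viability, nuclei counts in treated wells were divided by those in vehicle wells. Lung cancer cell lines had been pin-tool dosed in 1536-well plates the day after seeding and cultured for 5 days, then fixed and stained in one step (final 0.05% Triton X-100, 1% formaldehyde, 1 ug/ml Hoechst) and imaged at 4×. Doses were one drug alone or a fixed anchor-drug dose plus five library-drug doses (not always all listed) in √10 steps, and values are duplicate-plate medians.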

Compound in experiment [2]: C1CC1C(=O)NC2=NNC3=C2C=CC(=C3)C4=CC(=CC=C4)C(=O)NC5CC5 [XMD13-2] + N=C(N)NC(=N)NCCc1ccccc1 [Phenformin] (partner 250 µM)
In short, it runs like this:
as §1

Compound in experiment [3]: C1CC1C(=O)NC2=NNC3=C2C=CC(=C3)C4=CC(=CC=C4)C(=O)NC5CC5 [XMD13-2] + CC(=O)c1c(C)c2cnc(Nc3ccc(N4CCNCC4)cn3)nc2n(C2CCCC2)c1=O [Palbociclib] (partner 0.5 µM)
The procedure, abridged: as §1

Compound in experiment [4]: Cc1ccc(C(=O)Nc2cccc(C(F)(F)F)c2)cc1Nc1cncc(C(N)=O)c1 [ALW-II-49-7] + CC(=O)c1c(C)c2cnc(Nc3ccc(N4CCNCC4)cn3)nc2n(C2CCCC2)c1=O [Palbociclib] (partner 0.5 µM)
The procedure, abridged: as §1

For the cell line ChaGo-K-1, the relative viability was found to be 0.545 in experiment [1] (first compound 0.005 µM); 0.5 in experiment [1] (first compound 0.01581 µM); 0.543 in experiment [1] (first compound 0.05 µM); 0.49 in experiment [1] (first compound 0.1581 µM); 0.416 in experiment [1] (first compound 0.5 µM); 0.549 in experiment [2] (first compound 0.05 µM). For the same cell line, the relative viability in experiment [2] (first compound 0.1581 µM) was 0.416; in experiment [2] (first compound 0.5 µM), 0.507; in experiment [2] (first compound 1.581 µM), 0.489; in experiment [2] (first compound 5 µM), 0.474; in experiment [3] (first compound 0.05 µM), 0.923; in experiment [3] (first compound 0.1581 µM) it was 0.897. Moreover, the relative viability worked out at 0.958 in experiment [3] (first compound 0.5 µM); 0.92 in experiment [3] (first compound 1.581 µM); 0.795 in experiment [3] (first compound 5 µM); 0.949 in experiment [4] (first compound 0.08 µM); 0.98 in experiment [4] (first compound 0.253 µM); 0.954 in experiment [4] (first compound 0.8 µM). In addition, the results for the relative viability in experiment [4] (first compound 2.53 µM) and in experiment [4] (first compound 8 µM) were 0.887 and 0.98, respectively.
As for EKVX, the relative viability in experiment [1] (first compound 0.005 µM) came out at 0.307; in experiment [1] (first compound 0.01581 µM) it was 0.291; in experiment [1] (first compound 0.05 µM), 0.304; in experiment [1] (first compound 0.1581 µM), 0.187; in experiment [1] (first compound 0.5 µM), 0.146; in experiment [2] (first compound 0.05 µM) it was 0.224. Besides, the relative viability in experiment [2] (first compound 0.1581 µM) turned out to be 0.222; in experiment [2] (first compound 0.5 µM), 0.229; in experiment [2] (first compound 1.581 µM) it was 0.212; in experiment [2] (first compound 5 µM) it was 0.238; in experiment [3] (first compound 0.05 µM) it was 0.45; in experiment [3] (first compound 0.1581 µM) it was 0.376. Besides, the relative viability in experiment [3] (first compound 0.5 µM) came to 0.33; in experiment [3] (first compound 5 µM), 0.397; in experiment [4] (first compound 0.08 µM) it was 0.454; in experiment [4] (first compound 0.253 µM), 0.344; in experiment [4] (first compound 0.8 µM), 0.413; in experiment [4] (first compound 2.53 µM) it was 0.278. In addition, the relative viability in experiment [4] (first compound 8 µM) worked out at 0.359.
As to EMC-BAC-2, the relative viability in experiment [1] (first compound 0.005 µM) amounted to 0.982; in experiment [1] (first compound 0.01581 µM), 0.946; in experiment [1] (first compound 0.05 µM), 0.824; in experiment [1] (first compound 0.1581 µM), 0.758; in experiment [1] (first compound 0.5 µM), 0.712; in experiment [2] (first compound 0.05 µM), 0.534. Further, the relative viability in experiment [2] (first compound 0.1581 µM) was 0.52; in experiment [2] (first compound 0.5 µM), 0.586; in experiment [2] (first compound 1.581 µM), 0.511; in experiment [2] (first compound 5 µM), 0.561; in experiment [3] (first compound 0.05 µM), 0.558; in experiment [3] (first compound 0.1581 µM) it was 0.519. In addition, the relative viability in experiment [3] (first compound 0.5 µM) came out at 0.536; in experiment [3] (first compound 1.581 µM) it was 0.497; in experiment [3] (first compound 5 µM) it was 0.47; in experiment [4] (first compound 0.08 µM) it was 0.499; in experiment [4] (first compound 0.253 µM), 0.519; in experiment [4] (first compound 0.8 µM), 0.488. Besides, the relative viability in experiment [4] (first compound 2.53 µM) came to 0.437; in experiment [4] (first compound 8 µM) it was 0.391.
Turning to EPLC-272H, the relative viability came out at 0.39 in experiment [1] (first compound 0.005 µM); 0.392 in experiment [1] (first compound 0.01581 µM); 0.381 in experiment [1] (first compound 0.05 µM); 0.295 in experiment [1] (first compound 0.1581 µM); 0.153 in experiment [1] (first compound 0.5 µM); 0.322 in experiment [2] (first compound 0.05 µM). Moreover, the relative viability was 0.262 in experiment [2] (first compound 0.1581 µM); 0.344 in experiment [2] (first compound 0.5 µM); 0.368 in experiment [2] (first compound 1.581 µM); 0.266 in experiment [2] (first compound 5 µM); 0.314 in experiment [3] (first compound 0.05 µM); 0.344 in experiment [3] (first compound 0.1581 µM). Further, the relative viability stood at 0.329 in experiment [3] (first compound 0.5 µM); 0.279 in experiment [3] (first compound 1.581 µM); 0.317 in experiment [3] (first compound 5 µM); 0.273 in experiment [4] (first compound 0.08 µM); 0.319 in experiment [4] (first compound 0.253 µM); 0.317 in experiment [4] (first compound 0.8 µM). The results for the relative viability in experiment [4] (first compound 2.53 µM) and in experiment [4] (first compound 8 µM) were 0.346 and 0.343, respectively.
H3255: the relative viability in experiment [1] (first compound 0.005 µM) was determined as 0.66; in experiment [1] (first compound 0.01581 µM), 0.573; in experiment [1] (first compound 0.05 µM), 0.568; in experiment [1] (first compound 0.1581 µM) it was 0.493; in experiment [1] (first compound 0.5 µM), 0.311; in experiment [2] (first compound 0.05 µM) it was 0.21. For the same cell line, the relative viability in experiment [2] (first compound 0.1581 µM) came out at 0.378; in experiment [2] (first compound 0.5 µM), 0.409; in experiment [2] (first compound 1.581 µM), 0.364; in experiment [2] (first compound 5 µM) it was 0.358; in experiment [3] (first compound 0.05 µM) it was 0.316; in experiment [3] (first compound 0.1581 µM), 0.291. The relative viability was 0.309 in experiment [3] (first compound 0.5 µM); 0.334 in experiment [3] (first compound 1.581 µM); 0.306 in experiment [3] (first compound 5 µM); 0.309 in experiment [4] (first compound 0.08 µM); 0.314 in experiment [4] (first compound 0.253 µM); 0.322 in experiment [4] (first compound 0.8 µM). In addition, the relative viability in experiment [4] (first compound 2.53 µM) was 0.28; in experiment [4] (first compound 8 µM) it was 0.295.
As for NCI-H596, the relative viability worked out at 0.955 in experiment [1] (first compound 0.005 µM); 0.916 in experiment [1] (first compound 0.01581 µM); 0.724 in experiment [1] (first compound 0.05 µM); 0.668 in experiment [1] (first compound 0.1581 µM); 0.542 in experiment [1] (first compound 0.5 µM); 0.768 in experiment [2] (first compound 0.05 µM). The relative viability in experiment [2] (first compound 0.1581 µM) came out at 0.863; in experiment [2] (first compound 0.5 µM) it was 0.78; in experiment [2] (first compound 1.581 µM), 0.913; in experiment [2] (first compound 5 µM), 0.836.
On to NCI-H1563, for which the relative viability in experiment [2] (first compound 0.05 µM) worked out at 0.683; in experiment [2] (first compound 0.1581 µM), 0.697; in experiment [2] (first compound 0.5 µM), 0.64; in experiment [2] (first compound 1.581 µM), 0.669; in experiment [2] (first compound 5 µM) it was 0.679.
For NCI-H1623 the same measures were 0.52, 0.564, 0.582, 0.554 and 0.61.
With NCI-H1648, the relative viability in experiment [1] (first compound 0.005 µM) was found to be 0.494; in experiment [1] (first compound 0.01581 µM), 0.477; in experiment [1] (first compound 0.05 µM) it was 0.506; in experiment [1] (first compound 0.1581 µM), 0.457; in experiment [1] (first compound 0.5 µM), 0.241; in experiment [3] (first compound 0.05 µM), 0.309. Besides, the relative viability came out at 0.273 in experiment [3] (first compound 0.5 µM); 0.275 in experiment [3] (first compound 1.581 µM); 0.235 in experiment [3] (first compound 5 µM); 0.241 in experiment [4] (first compound 0.08 µM); 0.251 in experiment [4] (first compound 0.253 µM); 0.264 in experiment [4] (first compound 0.8 µM). In addition, the values for the relative viability in experiment [4] (first compound 2.53 µM) and in experiment [4] (first compound 8 µM) were 0.246 and 0.251, respectively.
With NCI-H2228, the relative viability is 0.346 in experiment [2] (first compound 0.05 µM); 0.37 in experiment [2] (first compound 0.1581 µM); 0.295 in experiment [2] (first compound 0.5 µM); 0.313 in experiment [2] (first compound 1.581 µM); 0.362 in experiment [2] (first compound 5 µM); 1.03 in experiment [3] (first compound 0.05 µM). Besides, the relative viability in experiment [3] (first compound 0.1581 µM) was determined as 0.779; in experiment [3] (first compound 0.5 µM), 0.724; in experiment [3] (first compound 1.581 µM), 0.709; in experiment [3] (first compound 5 µM), 0.818; in experiment [4] (first compound 0.08 µM), 0.602; in experiment [4] (first compound 0.253 µM), 0.416. Besides, the relative viability in experiment [4] (first compound 0.8 µM) amounted to 0.645; in experiment [4] (first compound 2.53 µM), 0.812; in experiment [4] (first compound 8 µM) it was 0.596.
